The values that follow come from patent publication US11186592B2, “Thiazolopyridine derivatives as adenosine receptor antagonists” (MERCK PATENT GMBH, priority 2017, dated 2021).

Common to all, as to format: cell-based
Test [1] addresses T1, human A2B receptor (Homo sapiens, UniProt P29275).
T1 construct: expressed in transfected cells; host or cells: HEK293
T1 sequence (P29275 1-332): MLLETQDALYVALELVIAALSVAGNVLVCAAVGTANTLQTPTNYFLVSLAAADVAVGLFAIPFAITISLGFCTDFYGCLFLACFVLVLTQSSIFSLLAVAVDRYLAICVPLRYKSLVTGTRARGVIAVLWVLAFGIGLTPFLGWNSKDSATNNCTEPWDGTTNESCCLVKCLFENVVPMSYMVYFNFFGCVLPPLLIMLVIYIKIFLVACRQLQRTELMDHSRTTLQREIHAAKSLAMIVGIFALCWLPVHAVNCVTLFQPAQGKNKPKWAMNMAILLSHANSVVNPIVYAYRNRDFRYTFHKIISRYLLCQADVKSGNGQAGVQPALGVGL
As to the kind of experiment: cAMP (HTRF) functional assay, recombinant HEK293 cells expressing human A2B receptor, agonist NECA. The essentials:
(§1)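 Cellular cAMP measured by HTRF after 30 min incubation of cells with forskolin, test compounds and agonist. Data normalized to inhibitor control and DMSO neutral control, then curve-fitted.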

The target of test [2] is T2, human A1 receptor (Homo sapiens, UniProt P30542).
T2 construct: expressed in transfected cells; host or cells: CHO
T2 sequence (P30542 1-326): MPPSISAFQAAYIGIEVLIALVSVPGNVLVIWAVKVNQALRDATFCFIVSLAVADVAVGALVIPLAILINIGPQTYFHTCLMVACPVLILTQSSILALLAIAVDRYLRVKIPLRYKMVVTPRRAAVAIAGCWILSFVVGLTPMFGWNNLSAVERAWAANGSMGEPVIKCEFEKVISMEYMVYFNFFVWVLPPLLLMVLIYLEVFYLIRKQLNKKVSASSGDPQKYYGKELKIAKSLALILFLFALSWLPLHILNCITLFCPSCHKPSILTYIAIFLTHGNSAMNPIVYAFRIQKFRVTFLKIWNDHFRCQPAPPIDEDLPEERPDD
The test is described as follows: cAMP (HTRF) functional assay, recombinant CHO cells expressing human A1 receptor, forskolin + agonist CPA. The essentials:
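Recombinant CHO cells expressing A1 or A3 receptor (Gi-coupled) were stimulated with forskolin together with test compound and agonist (CPA for A1, IB-MECA for A3), incubated 30 min, then cellular cAMP was read by HTRF. Data were normalized to inhibitor control and DMSO neutral control, then curve-fitted.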

Test [3] deals with T3, human A3 receptor (Homo sapiens, UniProt P0DMS8).
T3 construct: expressed in transfected cells; host or cells: CHO
T3 sequence (P0DMS8 1-318): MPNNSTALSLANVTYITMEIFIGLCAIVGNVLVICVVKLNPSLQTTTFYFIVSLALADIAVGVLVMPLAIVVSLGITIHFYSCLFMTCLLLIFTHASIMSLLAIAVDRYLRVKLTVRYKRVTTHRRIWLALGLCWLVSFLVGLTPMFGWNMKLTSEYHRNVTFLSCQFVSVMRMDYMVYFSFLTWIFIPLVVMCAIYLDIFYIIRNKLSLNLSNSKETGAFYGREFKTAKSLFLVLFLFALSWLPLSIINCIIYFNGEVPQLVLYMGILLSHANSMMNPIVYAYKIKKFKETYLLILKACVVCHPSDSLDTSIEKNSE
As to the kind of experiment: cAMP (HTRF) functional assay, recombinant CHO cells expressing human A3 receptor, forskolin + agonist IB-MECA. The method, then:
The functional activities of human A2A, A2B, A1 and A3 receptors were determined by quantification of cAMP, being the second messenger for adenosine receptors.
For human A1 and A3 receptors, recombinant CHO cells, expressing either A1 or A3-receptor, were used. As both receptors couple to Gi proteins, the assay protocol was adapted:
Cells were seeded into 384-well plates, forskolin, test compounds and agonists (CPA for A1- and IB-MECA for A3-receptor) were added. After 30 min incubation, HTRF reagents (cAMP dynamic 2, Cis Bio) were added and the cellular cAMP levels were determined using the ENVISION (Perkin Elmer) plate reader. Obtained raw data were normalized against the inhibitor control and the neural control (DMSO) and the normalized data were fitted using GeneData software.

Test [4] addresses T4, human A2A receptor (Homo sapiens, UniProt P29274).
T4 construct: expressed in transfected cells; host or cells: HEK293
The test is described as follows: cAMP (HTRF) functional assay, recombinant HEK293 cells expressing human A2A receptor, agonist NECA. Put shortly: as §1
In general terms: TR-FRET usually uses a lanthanide donor and a delayed reading to cut background.

SMILES strings stand for the structures. pIC50: −log10 of the molar value. A value given as a limit tells only on which side of the number the result lay.

T4 sequence (P29274 whole entry): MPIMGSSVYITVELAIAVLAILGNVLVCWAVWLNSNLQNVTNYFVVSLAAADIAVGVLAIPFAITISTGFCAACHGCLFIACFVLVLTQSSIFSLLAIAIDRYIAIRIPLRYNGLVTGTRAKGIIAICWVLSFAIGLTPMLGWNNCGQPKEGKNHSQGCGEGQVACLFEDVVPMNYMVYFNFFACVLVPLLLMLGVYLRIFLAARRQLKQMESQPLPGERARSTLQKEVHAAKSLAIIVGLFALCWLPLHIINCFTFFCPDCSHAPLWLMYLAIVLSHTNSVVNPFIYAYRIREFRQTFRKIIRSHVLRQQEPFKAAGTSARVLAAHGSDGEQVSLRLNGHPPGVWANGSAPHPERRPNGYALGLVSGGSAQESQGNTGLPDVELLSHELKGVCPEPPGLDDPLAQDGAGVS

As a reminder, the pIC50 is the IC50 on a negative log10 scale, so that one unit is a factor of ten. For the compound `COc1ncc(-c2cnn(C)c2)c2sc(NC(=O)N3CC[C@]4(CCOC4)C3)nc12` [compound 173, (S)-2-Oxa-7-aza-spiro[4.4]nonane-7-carboxylic acid [4-methoxy-7-(1-methyl-1H-pyrazol-4-yl)-thiazolo[4,5-c]pyridin-2-yl]-amide], the pIC50 in test [1] was over 7.00; in test [2], under 6.00; in test [3], under 6.00; in test [4], over 8.00.
`COc1ncc(-c2cnn(C)c2)c2sc(NC(=O)C3CC3)nc12` [compound 179, Cyclopropanecarboxylic acid [4-methoxy-7-(1-methyl-1H-pyrazol-4-yl)-thiazolo[4,5-c]pyridin-2-yl]-amide]: the pIC50 in test [1] is over 7.00; in test [2], under 6.00; in test [3], over 6.00; in test [4], over 8.00.
Consider `COc1ncc(-c2ccccc2)c2sc(NC(=O)c3cnc(C)o3)nc12` [compound 186, 2-Methyl-oxazole-5-carboxylic acid (4-methoxy-7-phenyl-thiazolo[4,5-c]pyridin-2-yl)-amide], for which the pIC50 in test [1] is over 7.00; in test [2], over 6.00; in test [3], over 6.00; in test [4], over 8.00.
`COc1ncc(-c2ccccc2)c2sc(NC(=O)C3CC3)nc12` [compound 187, Cyclopropanecarboxylic acid (4-methoxy-7-phenyl-thiazolo[4,5-c]pyridin-2-yl)-amide]: the pIC50 in test [1] was over 7.00; in test [2], over 6.00; in test [3], over 6.00; in test [4], over 8.00.
Regarding `COc1ncc(-c2ccccc2)c2sc(NC(=O)c3cnc(C)s3)nc12` [compound 190, 2-Methyl-thiazole-5-carboxylic acid (4-methoxy-7-phenyl-thiazolo[4,5-c]pyridin-2-yl)-amide], the pIC50 in test [1] is over 7.00; in test [2], over 6.00; in test [3], over 6.00; in test [4], over 8.00.
Consider `COc1ncc(-c2cccc(F)c2)c2sc(NC(=O)N3CCC4(CCOCC4)C3)nc12` [compound 194, 8-Oxa-2-aza-spiro[4.5]decane-2-carboxylic acid [7-(3-fluoro-phenyl)-4-methoxy-thiazolo[4,5-c]pyridin-2-yl]-amide], for which the pIC50 was over 7.00 in test [1], over 6.00 in test [2], under 6.00 in test [3] and over 8.00 in test [4].
Take `COc1ncc(-c2ccccc2F)c2sc(NC(=O)N3CCC4(CCOCC4)C3)nc12` [compound 195, 8-Oxa-2-aza-spiro[4.5]decane-2-carboxylic acid [7-(2-fluoro-phenyl)-4-methoxy-thiazolo[4,5-c]pyridin-2-yl]-amide]: the pIC50 in test [1] is over 7.00; in test [2] it was under 6.00; in test [3], under 6.00; in test [4], over 8.00.
On to `COc1ncc(-c2ccccc2)c2sc(NC(=O)C3(N)CC3)nc12` [compound 203, 1-Amino-cyclopropanecarboxylic acid (4-methoxy-7-phenyl-thiazolo[4,5-c]pyridin-2-yl)-amide], for which the pIC50 in test [1] was over 7.00; in test [2] it was over 6.00; in test [3], over 6.00; in test [4], over 8.00.
Take `COc1ncc(-c2ccccc2)c2sc(NC(=O)N3CC[C@@]4(CCCOC4)C3)nc12` [compound 204, (S)-7-Oxa-2-aza-spiro[4.5]decane-2-carboxylic acid (4-methoxy-7-phenyl-thiazolo[4,5-c]pyridin-2-yl)-amide]: the pIC50 is over 7.00 in test [1], over 6.00 in test [2], under 6.00 in test [3] and over 8.00 in test [4].
Turning to `COc1ncc(-c2ccccc2)c2sc(NC(=O)N3CC[C@]4(CCCOC4)C3)nc12` [compound 205, (R)-7-Oxa-2-aza-spiro[4.5]decane-2-carboxylic acid (4-methoxy-7-phenyl-thiazolo[4,5-c]pyridin-2-yl)-amide], the pIC50 in test [1] is over 7.00; in test [2] it was under 6.00; in test [3], under 6.00; in test [4], over 8.00.
As to `COc1ncc(-c2ccccc2)c2sc(NC(=O)N3CC[C@]4(CCOC4)C3)nc12` [compound 207, (S)-2-Oxa-7-aza-spiro[4.4]nonane-7-carboxylic acid (4-methoxy-7-phenyl-thiazolo[4,5-c]pyridin-2-yl)-amide], the pIC50 in test [1] is over 7.00; in test [2], over 6.00; in test [3], under 6.00; in test [4], over 8.00.
As to `COc1ncc(-c2ccccc2)c2sc(NC(=O)N3CC[C@@]4(CCOC4)C3)nc12` [compound 208, (R)-2-Oxa-7-aza-spiro[4.4]nonane-7-carboxylic acid (4-methoxy-7-phenyl-thiazolo[4,5-c]pyridin-2-yl)-amide], the pIC50 in test [1] is over 7.00; in test [2], under 6.00; in test [3], under 6.00; in test [4], over 8.00.
For the compound `COc1ncc(-c2cccc(F)c2F)c2sc(NC(=O)N3CCC4(CCOCC4)C3)nc12` [compound 209, 8-Oxa-2-aza-spiro[4.5]decane-2-carboxylic acid [7-(2,3-difluoro-phenyl)-4-methoxy-thiazolo[4,5-c]pyridin-2-yl]-amide], the pIC50 in test [1] was over 7.00; in test [2], under 6.00; in test [3], under 6.00; in test [4] it was over 8.00.
Consider `COc1ncc(-c2cc(F)ccc2F)c2sc(NC(=O)N3CCC4(CCOCC4)C3)nc12` [compound 210, 8-Oxa-2-aza-spiro[4.5]decane-2-carboxylic acid [7-(2,5-difluoro-phenyl)-4-methoxy-thiazolo[4,5-c]pyridin-2-yl]-amide], for which the pIC50 in test [1] is over 7.00; in test [2] it was under 6.00; in test [3] it was under 6.00; in test [4], over 8.00.
On to `COc1ncc(-c2ccccc2)c2sc(NC(=O)c3ccc(N4C(=O)CCC4=O)cc3)nc12` [compound 213, 4-(2,5-Dioxo-pyrrolidin-1-yl)-N-(4-methoxy-7-phenyl-thiazolo[4,5-c]pyridin-2-yl)-benzamide], for which the pIC50 is over 7.00 in test [1], over 6.00 in test [2], under 6.00 in test [3] and over 8.00 in test [4].
As for `COc1nc(Cl)c(-c2ccccc2)c2sc(NC(=O)N3CCC4(CCOCC4)C3)nc12` [compound 220, 8-Oxa-2-aza-spiro[4.5]decane-2-carboxylic acid (6-chloro-4-methoxy-7-phenyl-thiazolo[4,5-c]pyridin-2-yl)-amide], the pIC50 in test [1] was over 7.00; in test [2], under 6.00; in test [3] it was under 6.00; in test [4], over 8.00.
Take `COCCOc1cccc(-c2cnc(OC)c3nc(NC(=O)c4cnn(CCOC)c4)sc23)c1` [compound 233, N-{4-methoxy-7-[3-(2-methoxyethoxy)phenylH]-[1,3]thiazolo[4,5-c]pyridin-2-yl}-1-(2-methoxyethyl)-1H-pyrazole-4-carboxamide]: the pIC50 in test [1] was over 8.00; in test [2], over 6.00; in test [3], over 6.00; in test [4], over 8.00.
In the case of `COCCOc1cccc(-c2c(F)nc(OC)c3nc(NC(=O)N4CCC5(CCOCC5)C4)sc23)c1` [compound 234, N-{6-fluoro-4-methoxy-7-[3-(2-methoxyethoxy)phenyl]-[1,3]thiazolo[4,5-c]pyridin-2-yl}-8-oxa-2-azaspiro[4.5]decane-2-carboxamide], the pIC50 in test [1] was over 8.00; in test [2], over 7.00; in test [3], over 7.00; in test [4] it was over 8.00.
